Source: US8143252B2, “Tetrahalogenated compounds useful as inhibitors of angiogenesis” (The United States of America as represented by the …, priority 2006, dated 2012)
Where two headings read alike, the source gives them in different places. Marks after values point to notes of the source that are not given here.

Columns and labels:
[1] = system: rat aortic ring microvessel outgrowth; test: rat aortic ring microvessel assay; type: cell-based; details: for activity at 50 µM: Rattus norvegicus, 96 h, read-out: Average of Growth [%]
Procedure: The anti-angiogenic activity of the compounds was tested following the procedure described in Lepper, E. R., Ng, S. S., Gutschow, M., Weiss, M., Hauschildt, S., Hecker, T. K., Luzzio, F. A., Eger, K., Figg, W. D., J. Med. Chem. 2004, Comparative molecular field analysis and comparative molecular similarity indices analysis of thalidomide analogues as angiogenesis inhibitors; 47(9):2219-27. Twelve-well tissue culture-grade plates were covered with 250 μL Matrigel and allowed to gel for 30 to 45 minutes at 37° C., 5% CO2. Thoracic aortas were excised from 6- to 8-week-old male Sprague-Dawley rats, and the fibroadipose tissue was removed. The aortas were cut into 1 mm-long cross-sections and placed on the Matrigel coated wells. They were then covered with an additional 250 μL Matrigel and allowed to gel for 30 to 45 minutes at 37° C., 5% CO2. The rings were cultured for 24 hours in 1 mL EBM-2. After 24 hours, the medium was removed and replaced with 1 mL EBM-2 (Clonetics Corp.), supplemented with fetal bovine serum (2%), ascorbic acid, hydrocortisone, heparin, and amphotericin. Each selected compound was dissolved in DMSO and added to the EBM-2, before it was added to the well. Each selected compound was administered daily for four days at a daily dosage of 50 μM. Photos were taken on Day 5. DMSO alone was used as a control baseline. Carboxyamidotriazole (“CAI” from NCI, Bethesda, Md.) was used as a positive control. The vascular outgrowth was quantified using Adobe Photoshop (Adobe Systems, Inc., San Jose, Calif.) and the results are provided below in Tables 1 and 2.

[2] = system: Human umbilical vein endothelial cells (HUVECs); test: HUVEC Proliferation Assay (hemocytometer count, trypan blue); type: cell-based; details: 24 hours, cell count normalized to DMSO control, concentration not given
Procedure: (§1) Human umbilical vein endothelial cells (HUVECs (Clonetics)) were maintained in EGM-II, supplemented with a Bullet-Kit (Clonetics). Human prostate cancer cell lines (PC3s (ATCC)) were maintained in RPMI-1640, supplemented with 10% fetal bovine serum. Both cell lines were incubated at 37° C., in a 5% CO2 atmosphere. Cells were seeded onto 12-well plates at a density of 30,000 cells/well and allowed to attach overnight at 37° C. and 5% CO2. The culture medium was then aspirated, and fresh culture medium containing either the vehicle (0.5% DMSO) or drug solution in 0.5% DMSO was added. After 24 hours, media was removed, then cells were trypsinized and counted with a hemocytometer, using trypan blue to exclude non-viable cells. Each compound was tested in triplicate and the cell count was normalized to the controls, to give the % growth. The results are shown below in Tables 3 and 4, and in FIGS. 5 and 6.

[3] = system: Human prostate cancer cell lines (PC3s); test: PC3 Proliferation Assay (hemocytometer count, trypan blue); type: cell-based; details: 24 hours, cell count normalized to DMSO control, concentration not given
Procedure: as §1

HUVEC = HUVEC Proliferation Assay, CCK-8 counting; type: cell-based, human; details: 24 h incubation
Procedure: as §1
(§2) The experiments for the data in Table 5 was performed as described above, except that the Table 5 experiments were performed in […] (at two concentrations), and the CCK-8 Cell Counting Kit (Dajindo Technologies) was utilized after treating for 24 hours.

PC3 = PC3 Proliferation Assay, CCK-8 counting; type: cell-based, human; details: 24 h incubation
Procedure: as §1, §2

[4] = system: rat aortic ring microvessel outgrowth; details: 50 μM; data reported in Lepper et al., J. Med. Chem. 2004; cited from earlier work

CCCN1C(=O)NC(=O)C(C)(NC(=O)c2cc(F)c(F)c(F)c2F)C1=O (racemic) [Compound 20b, N-(Hexahydro-5-methyl-2,4,6-trioxo-1-propyl-5-pyrimidinyl)-2,3,4,5-tetrafluorobenzamide]
activity at 50 µM [1]: 23.1%

CCCN1C(=O)NC(=O)C(CC)(NC(=O)c2cc(F)c(F)c(F)c2F)C1=O (racemic) [Compound 20e, N-(5-Ethyl-hexahydro-2,4,6-trioxo-1-propyl-5-pyrimidinyl)-2,3,4,5-tetrafluorobenzamide]
activity at 50 µM [1]: 0.19%
Average of Growth [%] [2]: 24.05%
Average of Growth [%] [3]: 26.27%

CCN1C(=O)NC(=O)C(C)(N2C(=O)c3c(F)c(F)c(F)c(F)c3C2=O)C1=O (racemic) [Compound 19f, 1-Ethyl-5-methyl-5-(4,5,6,7-tetrafluoro-1,3-dihydro-1,3-dioxo-2H-isoindol-2-yl)-2,4,6(1H,3H,5H)-pyrimidinetrione]
activity at 50 µM [1]: 23.8%
HUVEC Growth (5 uM) (Control = 100%) Mean (HUVEC): 27.17%
HUVEC Growth (10 uM) (Control = 100%) Mean (HUVEC): 9.00%
PC3 Growth (5 uM) (Control = 100%) Mean (PC3): 25.95%
PC3 Growth (10 uM) (Control = 100%) Mean (PC3): 10.94%

CCC1(NC(=O)c2cc(F)c(F)c(F)c2F)C(=O)NC(=O)N(c2ccccc2)C1=O (racemic) [Compound 20k, N-(5-Ethyl-hexahydro-2,4,6-trioxo-1-phenyl-5-pyrimidinyl)-2,3,4,5-tetrafluorobenzamide]
activity at 50 µM [1]: 18.1%

CCN1C(=O)NC(=O)C(CC)(N2C(=O)c3c(F)c(F)c(F)c(F)c3C2=O)C1=O (racemic) [Compound 19d, 1,5-Diethyl-5-(4,5,6,7-tetrafluoro-1,3-dihydro-1,3-dioxo-2H-isoindol-2-yl)-2,4,6-(1H,3H,5H)-pyrimidinetrione]
activity at 50 µM [1]: 0.13%

CN1C(=O)NC(=O)C(C)(N2C(=O)c3c(F)c(F)c(F)c(F)c3C2=O)C1=O (racemic) [Compound 19a, 1,5-Dimethyl-5-(4,5,6,7-tetrafluoro-1,3-dihydro-1,3-dioxo-2H-isoindol-2-yl)-2,4,6-(1H,3H,5H)-pyrimidinetrione]
activity at 50 µM [1]: 0.12%

CCC1(N2C(=O)c3c(F)c(F)c(F)c(F)c3C2=O)C(=O)NC(=O)N(C(C)C)C1=O (racemic) [Compound 19g, 5-Ethyl-1-isopropyl-5-(4,5,6,7-tetrafluoro-1,3-dihydro-1,3-dioxo-2H-isoindol-2-yl)-2,4,6(1H,3H,5H)-pyrimidinetrione]
activity at 50 µM [1]: 0.13%
Average of Growth [%] [3]: 1.50%

CCN1C(=O)NC(=O)C(C)(NC(=O)c2cc(F)c(F)c(F)c2F)C1=O (racemic) [Compound 20f, N-(1-Ethyl-hexahydro-5-methyl-2,4,6-trioxo-5-pyrimidinyl)-2,3,4,5-tetrafluorobenzamide]
activity at 50 µM [1]: 16.8%

CC(C)N1C(=O)NC(=O)C(C)(N2C(=O)c3c(F)c(F)c(F)c(F)c3C2=O)C1=O (racemic) [Compound 19c, 1-Isopropyl-5-methyl-5-(4,5,6,7-tetrafluoro-1,3-dihydro-1,3-dioxo-2H-isoindol-2-yl)-2,4,6(1H,3H,5H)-pyrimidinetrione]
activity at 50 µM [1]: 0.14%
Average of Growth [%] [3]: 3.75%

CC1(N2C(=O)c3c(F)c(F)c(F)c(F)c3C2=O)C(=O)NC(=O)N(C2CCCCC2)C1=O (racemic) [Compound 19h, 1-Cyclohexyl-5-methyl-5-(4,5,6,7-tetrafluoro-1,3-dihydro-1,3-dioxo-2H-isoindol-2-yl)-2,4,6(1H,3H,5H)-pyrimidinetrione]
activity at 50 µM [1]: 11.8%

CC(C)N1C(=O)NC(=O)C(C)(NC(=O)c2cc(F)c(F)c(F)c2F)C1=O (racemic) [Compound 20c, N-(Hexahydro-1-isopropyl-5-methyl-2,4,6-trioxo-5-pyrimidinyl)-2,3,4,5-tetrafluorobenzamide]
activity at 50 µM [1]: 5.63%

NC(=O)c1nnn(Cc2cc(Cl)c(C(=O)c3ccc(Cl)cc3)c(Cl)c2)c1N [CAI, Carboxyamidotriazole, reference compound]
activity at 50 µM ([1]; phthalimides 19, 50 μM daily for four days, DMSO control = 100): 4.03%
Average of Growth [%] ([1]; tetrafluorobenzamides 20, 50 μM daily for four days, DMSO control = 100): 4.03%

CCCN1C(=O)NC(=O)C(CC)(N2C(=O)c3c(F)c(F)c(F)c(F)c3C2=O)C1=O (racemic) [Compound 19e, 5-Ethyl-1-propyl-5-(4,5,6,7-tetrafluoro-1,3-dihydro-1,3-dioxo-2H-isoindol-2-yl)-2,4,6(1H,3H,5H)-pyrimidinetrione]
activity at 50 µM [1]: 0.12%
HUVEC Growth (5 uM) (Control = 100%) Mean (HUVEC): 1.68%
HUVEC Growth (10 uM) (Control = 100%) Mean (HUVEC): 2.14%
PC3 Growth (5 uM) (Control = 100%) Mean (PC3): 31.02%
PC3 Growth (10 uM) (Control = 100%) Mean (PC3): 9.67%

CCC1(NC(=O)c2cc(F)c(F)c(F)c2F)C(=O)NC(=O)N(C(C)C)C1=O (racemic) [Compound 20g, N-(5-Ethyl-hexahydro-1-isopropyl-2,4,6-trioxo-5-pyrimidinyl)-2,3,4,5-tetrafluorobenzamide]
activity at 50 µM [1]: 0.1%
Average of Growth [%] [2]: 62.03%
Average of Growth [%] [3]: 38.46%

CN1C(=O)NC(=O)C(C)(NC(=O)c2cc(F)c(F)c(F)c2F)C1=O (racemic) [Compound 20a, N-(Hexahydro-1,5-dimethyl-2,4,6-trioxo-5-pyrimidinyl)-2,3,4,5-tetrafluorobenzamide]
activity at 50 µM [1]: 58.3%

CCC1(N2C(=O)c3c(F)c(F)c(F)c(F)c3C2=O)C(=O)NC(=O)N(C2CCCCC2)C1=O (racemic) [Compound 19i, 1-Cyclohexyl-5-ethyl-5-(4,5,6,7-tetrafluoro-1,3-dihydro-1,3-dioxo-2H-isoindol-2-yl)-2,4,6(1H,3H,5H)-pyrimidinetrione]
activity at 50 µM [1]: 11.2%

CCC1(N2C(=O)c3c(F)c(F)c(F)c(F)c3C2=O)C(=O)NC(=O)N(c2ccccc2)C1=O (stereo not drawn) [Compound 19k]
Average of Growth [%] [4]: 24.25^[a] %

CCC1(NC(=O)c2cc(F)c(F)c(F)c2F)C(=O)NC(=O)N(C2CCCCC2)C1=O (racemic) [Compound 20i, N-(1-Cyclohexyl-5-ethyl-hexahydro-2,4,6-trioxo-5-pyrimidinyl)-2,3,4,5-tetrafluorobenzamide]
activity at 50 µM [1]: 9.73%

CCCN1C(=O)NC(=O)C(C)(N2C(=O)c3c(F)c(F)c(F)c(F)c3C2=O)C1=O (racemic) [Compound 19b, 5-Methyl-1-propyl-5-(4,5,6,7-tetrafluoro-1,3-dihydro-1,3-dioxo-2H-isoindol-2-yl)-2,4,6(1H,3H,5H)-pyrimidinetrione]
activity at 50 µM [1]: 0.13%
Average of Growth [%] [3]: 1.50%

CC1(NC(=O)c2cc(F)c(F)c(F)c2F)C(=O)NC(=O)N(C2CCCCC2)C1=O (racemic) [Compound 20h, N-(1-Cyclohexyl-hexahydro-5-methyl-2,4,6-trioxo-5-pyrimidinyl)-2,3,4,5-tetrafluorobenzamide]
activity at 50 µM [1]: 16.5%
Average of Growth [%] [2]: 91.14%
Average of Growth [%] [3]: 34.52%

CCN1C(=O)NC(=O)C(CC)(NC(=O)c2cc(F)c(F)c(F)c2F)C1=O (racemic) [Compound 20d, N-(1,5-Diethyl-hexahydro-2,4,6-trioxo-5-pyrimidinyl)-2,3,4,5-tetrafluorobenzamide]
activity at 50 µM [1]: 31.1%
HUVEC Growth (5 uM) (Control = 100%) Mean (HUVEC): 11.46%
HUVEC Growth (10 uM) (Control = 100%) Mean (HUVEC): 14.53%
PC3 Growth (10 uM) (Control = 100%) Mean (PC3): 87.73%
